In US7666393B2, “Methods for assessing antiangiogenic agents” (Children's Medical Center Corporation, priority 2001, dated 2010):

Legend:
[1] = system: EPC; assay: VEGF-induced mobilization of EPC in mice (PBMNC colonies from peripheral blood); format: in vivo
Procedure: PBMNC from 1 ml of peripheral mouse blood were plated in medium containing bFGF and VEGF (FIG. 2A). […] Similar results were obtained with peripheral blood from mice, which were injected with microencapsulated cells producing endostatin (approximately 0.5×10^6 cells per mice) (Joki et al., 2001) (FIG. 2D). In order to elevate the number of EPC in the blood, the mice received injection of 0.5×10^6 cells producing VEGF, that were micro-encapsulated similar to the endostatin producing cells (FIGS. 2B-C).
PBMNC from VEGF injected mice were further analyzed by immunostaining in order to confirm their identity. Blood-derived cells were stained positively for VEGF-R2 (Flk-1), CD-31, BS-1 (a lectin specifically expressed on mouse EC) and for von-Wilerband factor (F.VIII). Only a few cells were stained positively for CD-14, a marker for macrophages. […] Furthermore, this in vivo effect of endostatin can be seen only if the starting number of EPC in the blood is high as a result of the VEGF treatment.

[2] = system: CAM vascularization; settings: in vivo; cited from earlier work
[3] = system: Human peripheral blood mononuclear cells (PBMNC); assay: In vitro formation of colonies from human peripheral blood mononuclear cells (EPC differentiation assay); format: cell-based; settings: medium with bFGF and VEGF, 6 days culture after addition
Procedure: Human peripheral blood mononuclear cells (PBMNC) were purified over Ficoll gradient and seeded onto non-treated plastic dish for 24 hr. Non. adherent cells were, transferred to a gelatin coated 48 well dish in medium containing basic fibroblast growth factor (BFGF) and VEGF. Angiostatin and endostatin were added to the medium 24 hours later and cells were cultured for additional 6 days. At the end of the experiment the colonies were fixed with ethanol, stained with methyl-methylene blue and counted (FIGS. 1A-C). […] There was no difference in the effects of angiostatin between the two concentrations used. […] Taken together, it appears that angiostatin and endostatin block the differentiation of EC from their circulating progenitors.

[4] = system: EPC; assay: Tumor-induced mobilization of EPC in SCID mice bearing HS-VF tumors; format: in vivo; settings: 7 days
Procedure: Many tumors secrete high levels of VEGF that can promote differentiation and mobilization of EPC. To test the effects of endostatin on tumor-induced mobilization of EPC, SCID mice (5 per group) were first injected subcutaneously with human pancreatic tumor cells (HS-VF cell, 2×10^6 cells/mouse) overexpressing VEGF. Eight days later half of the mice were implanted with “Alzet” osmotic pumps releasing murine endostatin (8-12 mg/kg/day) and the other half with pumps releasing saline. SCID mice that were not injected with tumor cells or pumps (normal SCID mice) served as a control to measure the number of EPC. After seven days, mice were sacrificed and blood samples were collected.
PBMNC were purified over “Ficoll” gradient and cells corresponding to 0.5 ml of blood were placed in a “Cytospin” tube. The cells were loaded onto glass slides, fixed and immunostained with MECA-32 antibodies, that specifically detect murine EC. The staining was developed with FITC-labeled (green) secondary antibodies and cell nuclei were stained with DAPI (blue). The proportion of MECA-32 positive cells from total PBMNC was calculated and shown in the graph of FIG. 4A.
Control mice had 0.29% MECA-32 positive cells in the PBMNC preparation. […]

[5] = system: EPC; assay: EPC in peripheral blood of cancer patients undergoing endostatin treatment (P1H12-positive cells); format: in vivo, human; settings: for percentage of EPC: about 240 mg/m^3 daily
Procedure: Recombinant human Endostatin (rhEndostatin, Endostatin™ EntreMed, Inc, Rockville, Md.) is under investigation in clinical Phase I trials in patients with advanced, refractory cancers. Twenty eight patients, age ranging from 28 to 72 years old with various types of cancer such as breast, colorectal and soft tissue sarcoma, participated in a phase I clinical trial at the Dana Farber Cancer Institute in Boston. We obtained blood samples from 7 patients that were treated with endostatin. The response of EPC to rhEndostatin differed between patients in accordance with differing clinical courses. The first group consisted of 4 patients with slowly progressive, stable or decreasing cancers that were followed with samples for 130-250 days (FIG. 6A). The second group consisted of patients with faster progressing cancer unaffected by rhEndostatin administration. This group was followed during 30 days of endostatin treatment (FIG. 6B). PBMNC were purified from the blood over “Ficoll” gradient and cells corresponding to 0.5 or 1 ml of blood were placed in a “Cytospin” tube. The cells were loaded onto glass slides, fixed and immuno-stained with FITC-conjugated P1H12 antibodies. Cell nuclei were stained with DAPI. The number of P1H12-positive cells was calculated as percentage of total PBMNC. EPC percentage varied among patients and was between 1.8-3.5%. […] Patients from the first group were initially administered with daily intravenous injections of 60 mg/m^3 endostatin. […] The administration of endostatin was later changed to continuous infusion (60 mg/m^3/day).
The second group of patients were at the beginning of endostatin treatment (daily IVB injections of about to 240 mg/m^3). The initial amount of EPC in this group varied between 0.4-1.6%. […] In these patients only 2-3 measurements of EPC were available because of rapid disease progression. […] On the other hand, minor response or stable disease progression upon endostatin administration was associated with reduction in the number EPC in peripheral blood, whereas an increase in EPC was associated with rapid disease progression.

With “vascular endothelial growth factor [VEGF, reference compound]” the “colonies from PBMNC of peripheral mouse blood” value ([1]; mice injected with 0.5×10^6 microencapsulated cells producing VEGF) was “Large number of colonies”.
For `CO[C@@H]1[C@H](OC(=O)NC(=O)CCl)CC[C@]2(CO2)[C@H]1[C@@]1(C)O[C@@H]1CC=C(C)C` [TNP-470, reference compound], the CAM vascularization [2] is given as “greatly inhibit”.
For endostatin, the “formation of PBMNC colonies” value ([3]; 2 μg/ml) was “the number of colonies grew but the colonies were small and contained small round cells”, the “formation of PBMNC colonies” value ([3]; 10 μg/ml) was “significantly lower than the control experiment” and the “proportion of MECA-32 positive cells from total PBMNC” value ([4]; Alzet pumps releasing murine endostatin 8-12 mg/kg/day, saline pumps approx. 2.5%, control mice 0.29%) was 0.67%. The “gated Flk-1 positive cells in the peripheral blood (FACS)” value ([4]; pumps releasing murine endostatin 8-12 mg/kg/day, saline 0.625+/−0.19%, normal mice 0.22+/−0.04%) was 0.305+/−0.05%, the “number of EPC (P1H12-positive cells, percentage of total PBMNC)” value ([5]; one patient of the first group, continuous infusion 60 mg/m^3/day, 130 days) was “not increased” and the “percentage of EPC” value ([5]; patient 13, faster progressing cancer, increased from 0.4% during 15 days of administration) was 3.8%. For the same compound, the “percentage of EPC” value ([5]; patient #11, faster progressing cancer, increased from 1.6% during 30 days of administration) was 5.3%, the EPC percentage ([5]; patient #12, faster progressing cancer, daily IVB injections of about 240 mg/m^3, first 15 days) was “did not change significantly” and the “number of EPC (P1H12-positive cells, percentage of total PBMNC)” value ([5]; patients #1, #2 and #3, continuous infusion 60 mg/m^3/day) was “further lowered”. For the same compound, the “number of EPC (P1H12-positive cells, percentage of total PBMNC)” value ([5]; patients #2 and #3, slowly progressing cancer, daily intravenous injections of 60 mg/m^3) was “gradually decreased”, the CAM vascularization [2] was “greatly inhibit” and the “colonies from PBMNC of 1 ml peripheral mouse blood” value ([1]; mice injected with microencapsulated cells producing endostatin only (approx. 0.5×10^6 cells per mouse), 7 days in culture) was “no viable cell-containing colonies could be detected”. The “colonies from PBMNC of peripheral mouse blood” value ([1]; mice received VEGF producing cells together with endostatin producing cells (0.5×10^6 alginate encapsulated cells of each)) was “only a few, small and round cell-containing colonies”.
In the case of angiostatin, the “formation of PBMNC colonies” value ([3]; 2 μg/ml) is listed as “completely blocked”, the “formation of PBMNC colonies” value ([3]; 10 μg/ml) is listed as “completely blocked” and the CAM vascularization [2] is listed as “greatly inhibit”.
